Columns and labels:
Format in all cases: functional
CCRF-CEM = assay: Cytotoxicity against human CCRF-CEM cells assessed as growth inhibition after 48 hrs by sulforhodamine B assay
HL-60(TB) = assay: Cytotoxicity against human HL-60(TB) cells assessed as growth inhibition after 48 hrs by sulforhodamine B assay; settings: HL-60, 48 h
A549 = assay: Cytotoxicity against human A549 cells assessed as growth inhibition after 48 hrs by sulforhodamine B assay; settings: A549, 48 h; for CC50: read-out: LC50 (the source's name)
EKVX = assay: Cytotoxicity against human EKVX cells assessed as growth inhibition after 48 hrs by sulforhodamine B assay; settings: for CC50: read-out: LC50 (the source's name)
HOP-62 = assay: Cytotoxicity against human HOP62 cells assessed as growth inhibition after 48 hrs by sulforhodamine B assay; settings: HOP-62, 48 h; for CC50: read-out: LC50 (the source's name)
NCI-H322M = assay: Cytotoxicity against human NCI-H322M cells assessed as growth inhibition after 48 hrs by sulforhodamine B assay; settings: for CC50: read-out: LC50 (the source's name)
NCI-H522 = assay: Cytotoxicity against human NCI-H522 cells assessed as growth inhibition after 48 hrs by sulforhodamine B assay; settings: NCI-H522, 48 h
HCC 2998 = assay: Cytotoxicity against human HCC2998 cells assessed as growth inhibition after 48 hrs by sulforhodamine B assay; settings: HCC 2998, 48 h
HCT-116 = assay: Cytotoxicity against human HCT116 cells assessed as growth inhibition after 48 hrs by sulforhodamine B assay; settings: HCT-116, 48 h
HCT-15 = assay: Cytotoxicity against human HCT15 cells assessed as growth inhibition after 48 hrs by sulforhodamine B assay; settings: HCT-15, 48 h
HT-29 = assay: Cytotoxicity against human HT-29 cells assessed as growth inhibition after 48 hrs by sulforhodamine B assay; settings: HT-29, 48 h
SW-620 = assay: Cytotoxicity against human SW620 cells assessed as growth inhibition after 48 hrs by sulforhodamine B assay; settings: SW-620, 48 h
SF-268 = assay: Cytotoxicity against human SF268 cells assessed as growth inhibition after 48 hrs by sulforhodamine B assay; settings: SF-268, 48 h
SF-295 = assay: Cytotoxicity against human SF295 cells assessed as growth inhibition after 48 hrs by sulforhodamine B assay; settings: SF-295, 48 h; for CC50: read-out: LC50 (the source's name)
SF-539 = assay: Cytotoxicity against human SF539 cells assessed as growth inhibition after 48 hrs by sulforhodamine B assay; settings: SF-539, 48 h
LOX IMVI = assay: Cytotoxicity against human LOXIMVI cells assessed as growth inhibition after 48 hrs by sulforhodamine B assay
M14 = assay: Cytotoxicity against human M14 cells assessed as growth inhibition after 48 hrs by sulforhodamine B assay; settings: M14, 48 h; for CC50: read-out: LC50 (the source's name)
SK-MEL-28 = assay: Cytotoxicity against human SK-MEL-28 cells assessed as growth inhibition after 48 hrs by sulforhodamine B assay; settings: SK-MEL-28, 48 h
SK-MEL-5 = assay: Cytotoxicity against human SK-MEL-5 cells assessed as growth inhibition after 48 hrs by sulforhodamine B assay; settings: SK-MEL-5, 48 h; for CC50: read-out: LC50 (the source's name)
UACC-62 = assay: Cytotoxicity against human UACC62 cells assessed as growth inhibition after 48 hrs by sulforhodamine B assay; settings: UACC-62, 48 h
OVCAR-3 = assay: Cytotoxicity against human OVCAR3 cells assessed as growth inhibition after 48 hrs by sulforhodamine B assay; settings: OVCAR-3, 48 h
OVCAR-4 = assay: Cytotoxicity against human OVCAR4 cells assessed as growth inhibition after 48 hrs by sulforhodamine B assay; settings: OVCAR-4, 48 h
OVCAR-5 = assay: Cytotoxicity against human OVCAR5 cells assessed as growth inhibition after 48 hrs by sulforhodamine B assay; settings: OVCAR-5, 48 h
OVCAR-8 = assay: Cytotoxicity against human OVCAR8 cells assessed as growth inhibition after 48 hrs by sulforhodamine B assay; settings: OVCAR-8, 48 h
786-0 = assay: Cytotoxicity against human 786-0 cells assessed as growth inhibition after 48 hrs by sulforhodamine B assay; settings: 786-0, 48 h
A498 = assay: Cytotoxicity against human A498 cells assessed as growth inhibition after 48 hrs by sulforhodamine B assay; settings: A498, 48 h
UO-31 = assay: Cytotoxicity against human UO31 cells assessed as growth inhibition after 48 hrs by sulforhodamine B assay; settings: UO-31, 48 h
PC-3 = assay: Cytotoxicity against human PC3 cells assessed as growth inhibition after 48 hrs by sulforhodamine B assay; settings: PC-3, 48 h
MDA-MB-231 = assay: Cytotoxicity against human MDA-MB-231 cells assessed as growth inhibition after 48 hrs by sulforhodamine B assay; settings: MDA-MB-231, 48 h
Hs-578T = assay: Cytotoxicity against human Hs 578T cells assessed as growth inhibition after 48 hrs by sulforhodamine B assay
BT-549 = assay: Cytotoxicity against human BT549 cells assessed as growth inhibition after 48 hrs by sulforhodamine B assay; settings: BT-549, 48 h
MDA-MB-468 = assay: Cytotoxicity against human MDA-MB-468 cells assessed as growth inhibition after 48 hrs by sulforhodamine B assay; settings: MDA-MB-468, 48 h; for CC50: read-out: LC50 (the source's name)

Compound: O=C1NC2C(CC(O)C(O)C2O)c2cc3c(c(O)c21)OCCO3 (racemic)
- GI50 (CCRF-CEM): 73.7 nM
- LC50 (concentration giving 50% net cell kill) (CCRF-CEM): > 100000 nM
- TGI (CCRF-CEM): 1830 nM
- GI50 (HL-60(TB)): 166 nM
- LC50 (HL-60(TB)): > 100000 nM
- TGI (HL-60(TB)): 590 nM
- GI50 (A549): 355 nM
- TGI (A549): 8530 nM
- CC50 (A549): > 100000 nM
- GI50 (EKVX): 257 nM
- TGI (EKVX): 1270 nM
- CC50 (EKVX): > 100000 nM
- GI50 (HOP-62): 255 nM
- TGI (HOP-62): 910 nM
- CC50 (HOP-62): 7270 nM
- GI50 (NCI-H322M): 105 nM
- TGI (NCI-H322M): 620 nM
- CC50 (NCI-H322M): > 100000 nM
- GI50 (NCI-H522): 147 nM
- LC50 (NCI-H522): 7620 nM
- TGI (NCI-H522): 730 nM
- GI50 (HCC 2998): 222 nM
- LC50 (concentration killing 50% of cells) (HCC 2998): 6310 nM
- TGI (HCC 2998): 730 nM
- GI50 (HCT-116): 77.7 nM
- LC50 (HCT-116): > 100000 nM
- TGI (HCT-116): 1310 nM
- GI50 (HCT-15): 280 nM
- LC50 (50% lethal concentration) (HCT-15): > 100000 nM
- TGI (HCT-15): 1910 nM
- GI50 (HT-29): 299 nM
- LC50 (concentration causing 50% net cell kill) (HT-29): 96400 nM
- TGI (HT-29): 1330 nM
- GI50 (SW-620): 222 nM
- LC50 (SW-620): > 100000 nM
- TGI (SW-620): 1220 nM
- GI50 (SF-268): 260 nM
- LC50 (SF-268): > 100000 nM
- TGI (SF-268): 1220 nM
- GI50 (SF-295): 357 nM
- TGI (SF-295): 2640 nM
- CC50 (SF-295): > 100000 nM
- GI50 (SF-539): 228 nM
- LC50 (SF-539): 12700 nM
- TGI (SF-539): 740 nM
- GI50 (LOX IMVI): 180 nM
- LC50 (concentration killing 50% of cells) (LOX IMVI): 3580 nM
- TGI (LOX IMVI): 530 nM
- GI50 (M14): 230 nM
- TGI (M14): 1190 nM
- CC50 (M14): 5530 nM
- GI50 (SK-MEL-28): 238 nM
- LC50 (concentration killing 50% of cells) (SK-MEL-28): 29400 nM
- TGI (SK-MEL-28): 890 nM
- GI50 (SK-MEL-5): 181 nM
- TGI (SK-MEL-5): 470 nM
- CC50 (SK-MEL-5): 2220 nM
- GI50 (UACC-62): 261 nM
- LC50 (UACC-62): 13000 nM
- TGI (UACC-62): 1380 nM
- GI50 (OVCAR-3): 280 nM
- LC50 (OVCAR-3): > 100000 nM
- TGI (OVCAR-3): 960 nM
- GI50 (OVCAR-4): 209 nM
- LC50 (concentration causing 50% net cell kill) (OVCAR-4): > 100000 nM
- TGI (OVCAR-4): 820 nM
- GI50 (OVCAR-5): 361 nM
- LC50 (OVCAR-5): > 100000 nM
- TGI (OVCAR-5): 2860 nM
- GI50 (OVCAR-8): 311 nM
- LC50 (OVCAR-8): > 100000 nM
- TGI (OVCAR-8): 5890 nM
- GI50 (786-0): 254 nM
- LC50 (concentration killing 50% of cells) (786-0): > 100000 nM
- TGI (786-0): 1610 nM
- GI50 (A498): 300 nM
- LC50 (concentration killing 50% of cells) (A498): 6860 nM
- TGI (A498): 1170 nM
- GI50 (UO-31): 316 nM
- LC50 (UO-31): > 100000 nM
- TGI (UO-31): 2460 nM
- GI50 (PC-3): 299 nM
- LC50 (PC-3): > 100000 nM
- TGI (PC-3): 2140 nM
- GI50 (MDA-MB-231): 232 nM
- LC50 (MDA-MB-231): 13200 nM
- TGI (MDA-MB-231): 1160 nM
- GI50 (Hs-578T): 256 nM
- LC50 (concentration killing 50% of cells) (Hs-578T): > 100000 nM
- TGI (Hs-578T): 940 nM
- GI50 (BT-549): 260 nM
- LC50 (concentration killing 50% of cells) (BT-549): > 100000 nM
- TGI (BT-549): 870 nM
- GI50 (MDA-MB-468): 68.1 nM
- TGI (MDA-MB-468): 360 nM
- CC50 (MDA-MB-468): 2780 nM

Compound: O=C1NC2C(CC(O)C(O)C2O)c2cc3c(c(O)c21)OCO3 (racemic)
- GI50 (CCRF-CEM): 52.9 nM
- TGI (CCRF-CEM): 2150 nM
- GI50 (HL-60(TB)): 60.1 nM
- TGI (HL-60(TB)): 260 nM
- GI50 (A549): 139 nM
- TGI (A549): 1160 nM
- CC50 (A549): > 100000 nM
- GI50 (EKVX): 145 nM
- TGI (EKVX): 1060 nM
- CC50 (EKVX): > 100000 nM
- GI50 (HOP-62): 56.8 nM
- TGI (HOP-62): 420 nM
- CC50 (HOP-62): > 100000 nM
- GI50 (NCI-H322M): 49.6 nM
- TGI (NCI-H322M): 480 nM
- CC50 (NCI-H322M): > 100000 nM
- GI50 (NCI-H522): 46.7 nM
- TGI (NCI-H522): 310 nM
- GI50 (HCC 2998): 57.2 nM
- TGI (HCC 2998): 330 nM
- GI50 (HCT-116): 40.4 nM
- TGI (HCT-116): 1130 nM
- GI50 (HCT-15): 85.7 nM
- TGI (HCT-15): 1110 nM
- GI50 (HT-29): 89.6 nM
- TGI (HT-29): 1000 nM
- GI50 (SW-620): 54.5 nM
- TGI (SW-620): 810 nM
- GI50 (SF-268): 127 nM
- TGI (SF-268): 800 nM
- GI50 (SF-295): 115 nM
- TGI (SF-295): 770 nM
- CC50 (SF-295): > 100000 nM
- GI50 (SF-539): 81.9 nM
- TGI (SF-539): 460 nM
- GI50 (LOX IMVI): 33.6 nM
- TGI (LOX IMVI): 170 nM
- GI50 (M14): 52.5 nM
- TGI (M14): 220 nM
- CC50 (M14): 700 nM
- GI50 (SK-MEL-28): 62.9 nM
- TGI (SK-MEL-28): 480 nM
- GI50 (SK-MEL-5): 71.9 nM
- TGI (SK-MEL-5): 360 nM
- CC50 (SK-MEL-5): 2220 nM
- GI50 (UACC-62): 136 nM
- TGI (UACC-62): 630 nM
- GI50 (OVCAR-3): 93.3 nM
- TGI (OVCAR-3): 480 nM
- GI50 (OVCAR-4): 55.6 nM
- TGI (OVCAR-4): 480 nM
- GI50 (OVCAR-5): 170 nM
- TGI (OVCAR-5): 1050 nM
- GI50 (OVCAR-8): 57.6 nM
- TGI (OVCAR-8): 1060 nM
- GI50 (786-0): 151 nM
- TGI (786-0): 1290 nM
- GI50 (A498): 200 nM
- TGI (A498): 540 nM
- GI50 (UO-31): 100 nM
- TGI (UO-31): 1090 nM
- GI50 (PC-3): 164 nM
- TGI (PC-3): 850 nM
- GI50 (MDA-MB-231): 100 nM
- TGI (MDA-MB-231): 880 nM
- GI50 (Hs-578T): 76.1 nM
- TGI (Hs-578T): 510 nM
- GI50 (BT-549): 178 nM
- TGI (BT-549): 820 nM
- GI50 (MDA-MB-468): 32 nM
- TGI (MDA-MB-468): 190 nM
- CC50 (MDA-MB-468): 6590 nM

Reference: ChEMBL document CHEMBL4346705, “(±)-trans-Dihydronarciclasine and (±)-trans-dihydrolycoricidine analogues modified in their ring A: Evaluation of their anticancer activity and a SAR study” (2019)
